Laboratory results as given in patent publication US9487483B2, “Complement pathway modulators and uses thereof” (priority 2012, dated 2016).

Molecular target: Recombinant human factor D (Homo sapiens (Human), UniProt P00746)
Assay: biochemical
Assay type: biochemical
Conditions: Factor D inhibition data using Method 1; substrate Z-Lys-thiobenzyl, fluorescence readout; read-out: IC50

Sequence of Recombinant human factor D (P00746 26-253): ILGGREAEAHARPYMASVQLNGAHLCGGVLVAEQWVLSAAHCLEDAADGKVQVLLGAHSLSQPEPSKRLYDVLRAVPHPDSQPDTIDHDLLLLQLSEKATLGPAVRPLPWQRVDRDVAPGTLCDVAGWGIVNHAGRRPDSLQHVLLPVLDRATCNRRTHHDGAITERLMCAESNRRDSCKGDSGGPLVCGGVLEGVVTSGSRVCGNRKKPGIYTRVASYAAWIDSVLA

Compound	IC50 [nM]
NC(=O)n1cc(NC(=O)N2[C@@H]3C[C@@H]3C[C@H]2C(=O)N[C@@H]2CCC[C@H](C(F)(F)F)C2)c2ccccc21 [Example 26, (1R,3S,5R)-2-Aza-bicyclo[3.1.0]hexane-2,3-dicarboxylic acid 2-[(1-carbamoyl-1H-indol-3-yl)-amide] 3-[((1R,3S)-3-trifluoromethyl-cyclohexyl)-amide]]	26
CC1(C)CCC[C@@H](NC(=O)[C@@H]2C[C@@H](F)CN2C(=O)Nc2cn(C(N)=O)c3ccccc23)C1 [Example 27, (2S,4R)-4-Fluoro-pyrrolidine-1,2-dicarboxylic acid 1-[(1-carbamoyl-1H-indol-3-yl)-amide] 2-[((R)-3,3-dimethyl-cyclohexyl)-amide]]	40
NC(=O)c1nn(CC(=O)N2[C@@H]3C[C@@H]3C[C@H]2C(=O)NC2CCCC(O)(C(F)(F)F)C2)c2ccccc12 (stereo partly drawn) [Example 31, 1-{2-[(1R,3S,5R)-3-(3-Hydroxy-3-trifluoromethyl-cyclohexylcarbamoyl)-2-aza-bicyclo[3.1.0]hex-2-yl]-2-oxo-ethyl}-1H-indazole-3-carboxylic acid amide]	900
CC(=O)c1nn(CC(=O)N2[C@@H]3C[C@@H]3C[C@H]2C(=O)NC2CCCC(OC(F)(F)F)C2)c2ccccc12 (stereo partly drawn) [Example 32, (1R,3S,5R)-2-[2-(3-Acetyl-indazol-1-yl)-acetyl]-2-aza-bicyclo[3.1.0]hexane-3-carboxylic acid (trans-3-trifluoromethoxy-cyclohexyl)-amide]	63
NC(=O)c1nn(CC(=O)N2[C@@H]3C[C@@H]3C[C@H]2C(=O)NC2CCCC(O)(C(F)(F)F)C2)c2cnccc12 (stereo partly drawn) [Example 34, 1-{2-[(1R,3S,5R)-3-(3-Hydroxy-3-trifluoromethyl-cyclohexylcarbamoyl)-2-aza-bicyclo[3.1.0]hex-2-yl]-2-oxo-ethyl}-1H-pyrazolo[3,4-c]pyridine-3-carboxylic acid amide]	728
NC(=O)c1nn(CC(=O)N2[C@@H]3C[C@@H]3C[C@H]2C(=O)NC2CCCCC2(F)F)c2cnccc12 (stereo partly drawn) [Example 35, 1-{2-[(1R,3S,5R)-3-(2,2-Difluoro-cyclohexylcarbamoyl)-2-aza-bicyclo[3.1.0]hex-2-yl]-2-oxo-ethyl}-1H-pyrazolo[3,4-c]pyridine-3-carboxylic acid amide]	774
CC(=O)c1nn(CC(=O)N2[C@@H]3C[C@@H]3C[C@H]2C(=O)NC2CCCC=C2F)c2ccc(OCc3ncccn3)cc12 (stereo partly drawn) [Example 38, (1R,3S,5R)-2-{2-[3-acetyl-5-(pyrimidin-2-ylmethoxy)-indazol-1-yl]-acetyl}-2-aza-bicyclo[3.1.0]hexane-3-carboxylic acid (2-fluoro-cyclohex-2-enyl)-amide]	282
CO[C@H]1CCC[C@@H](NC(=O)[C@@H]2C[C@H]3C[C@H]3N2C(=O)Cn2nc(C(N)=O)c3ccccc32)C1 [Example 46, 1-{2-[(1R,3S,5R)-3-((1R,3S)-3-Methoxy-cyclohexylcarbamoyl)-2-aza-bicyclo[3.1.0]hex-2-yl]-2-oxo-ethyl}-1H-indazole-3-carboxylic acid amide]	478
NC(=O)c1nn(CC(=O)N2[C@@H]3C[C@@H]3C[C@H]2C(=O)N[C@@H]2CCC[C@H](C(F)(F)F)C2)c2ccccc12 [Example 49, 1-{2-Oxo-2-[(1R,3S,5R)-3-((1R,3S)-3-trifluoromethyl-cyclohexylcarbamoyl)-2-aza-bicyclo[3.1.0]hex-2-yl]ethyl}-1H-indazole-3-carboxylic acid amide]	29
Cc1cc2c(C(N)=O)nn(CC(=O)N3[C@@H]4C[C@@H]4C[C@H]3C(=O)N[C@@H]3CCC[C@H](C(F)(F)F)C3)c2cn1 [Example 50, 5-Methyl-1-{2-oxo-2-[(1R,3S,5R)-3-((1R,3S)-3-trifluoromethyl-cyclohexylcarbamoyl)-2-aza-bicyclo[3.1.0]hex-2-yl]ethyl}-1H-pyrazolo[3,4-c]pyridine-3-carboxylic acid amide]	118
C[C@H]1CCC[C@@H](NC(=O)[C@@H]2C[C@H]3C[C@H]3N2C(=O)Cn2nc(C(N)=O)c3ccncc32)C1 [Example 51, 1-{2-[(1R,3S,5R)-3-((1R,3S)-3-Methyl-cyclohexylcarbamoyl)-2-aza-bicyclo[3.1.0]hex-2-yl]-2-oxo-ethyl}-1H-pyrazolo[3,4-c]pyridine-3-carboxylic acid amide]	226
NC(=O)c1nn(CC(=O)N2[C@@H]3C[C@@H]3C[C@H]2C(=O)NC2CCC(F)(F)C2)c2ccccc12 (stereo partly drawn) [Example 52, 1-{2-[(1R,3S,5R)-3-(3,3-Difluoro-cyclopentylcarbamoyl)-2-aza-bicyclo[3.1.0]hex-2-yl]-2-oxo-ethyl}-1H-indazole-3-carboxylic acid amide]	999
CC1(C)CCC[C@H](NC(=O)[C@@H]2C[C@H]3C[C@H]3N2C(=O)Cn2nc(C(N)=O)c3ccccc32)C1 [Example 53, 1-{2-[(1R,3S,5R)-3-((S)-3,3-Dimethyl-cyclohexylcarbamoyl)-2-aza-bicyclo[3.1.0]hex-2-yl]-2-oxo-ethyl}-1H-indazole-3-carboxylic acid amide]	905
CC1(C)CCC[C@@H](NC(=O)[C@@H]2C[C@H]3C[C@H]3N2C(=O)Cn2nc(C(N)=O)c3ccccc32)C1 [Example 54, 1-{2-[(1R,3S,5R)-3-((R)-3,3-Dimethyl-cyclohexylcarbamoyl)-2-aza-bicyclo[3.1.0]hex-2-yl]-2-oxo-ethyl}-1H-indazole-3-carboxylic acid amide]	57
CC1(C)CCC[C@H](NC(=O)[C@@H]2C[C@H]3C[C@H]3N2C(=O)Cn2nc(C(N)=O)c3ccncc32)C1 [Example 55, 1-{2-[(1R,3S,5R)-3-((S)-3,3-Dimethyl-cyclohexylcarbamoyl)-2-aza-bicyclo[3.1.0]hex-2-yl]-2-oxo-ethyl}-1H-pyrazolo[3,4-c]pyridine-3-carboxylic acid amide]	2210
CC1(C)CCC[C@@H](NC(=O)[C@@H]2C[C@H]3C[C@H]3N2C(=O)Cn2nc(C(N)=O)c3ccncc32)C1 [Example 56, 1-{2-[(1R,3S,5R)-3-((R)-3,3-Dimethyl-cyclohexylcarbamoyl)-2-aza-bicyclo[3.1.0]hex-2-yl]-2-oxo-ethyl}-1H-pyrazolo[3,4-c]pyridine-3-carboxylic acid amide]	37
Cc1ccc2c(c1)c(C(N)=O)nn2CC(=O)N1[C@@H]2C[C@@H]2C[C@H]1C(=O)N[C@@H]1CCCC(C)(C)C1 [Example 59, 1-{2-[(1R,3S,5R)-3-((R)-3,3-Dimethyl-cyclohexylcarbamoyl)-2-aza-bicyclo[3.1.0]hex-2-yl]-2-oxo-ethyl}-5-methyl-1H-indazole-3-carboxylic acid amide]	43

Same assay, conditions: read-out: IC50

Compound	IC50 [nM]
Cc1cc2c(C(N)=O)nn(CC(=O)N3[C@@H]4C[C@@H]4C[C@H]3C(=O)NN3CCCC(C)(C)C3)c2cn1 [Example 29, 1{2-[(1R,3S,5R)-3-(3,3-Dimethyl-pipendin-1-ylcarbamoyl)-2-aza-bicyclo[3.1.0]hex-2-yl]-2-oxo-ethyl}-5-methyl-1H-pyrazolo[3,4-c] pyridine-3-carboxylic acid amide]	28
CC(=O)c1nn(CC(=O)N2[C@@H]3C[C@@H]3C[C@H]2C(=O)NN2CCCC(C)(C)C2)c2ccc(OCc3ncccn3)cc12 [Example 30, (1R,3S,5R)-2-{2-[3-Acetyl-5-(pyrimidin-2-ylmethoxy)-indazol-1-yl]-acetyl}-2-aza-bicyclo[3.1.0] hexane-3-carboxylic acid (3,3-dimethyl-piperidin-1-yl)-amide]	10
NC(=O)c1nn(CC(=O)N2[C@@H]3C[C@@H]3C[C@H]2C(=O)NC2CCCC(OC(F)(F)F)C2)c2ccccc12 (stereo partly drawn) [Example 33, 1-{2-Oxo-2-[(1R,3S,5R)-3-(trans-3-trifluoromethoxy-cyclohexylcarbamoyl)-2-aza-bicyclo[3.1.0]hex-2-yl]ethyl}-1H-indazole-3-carboxylic acid amide]	121
NC(=O)c1nn(CC(=O)N2[C@@H]3C[C@@H]3C[C@H]2C(=O)N[C@@H]2CCC[C@H](C(F)(F)F)C2)c2cnccc12 [Example 41, 1-{2-Oxo-2-[(1R,3S,5R)-3-((1R,3S)-3-trifluoromethyl-cyclohexylcarbamoyl)-2-aza-bicyclo[3.1.0]hex-2-yl]-ethyl}-1H-pyrazolo[3,4-c]pyridine-3-carboxylic acid amide]	114
CO[C@H]1CCC[C@H](NC(=O)[C@@H]2C[C@H]3C[C@H]3N2C(=O)Cn2nc(C(C)=O)c3ccccc32)C1 [Example 42, (1R,3S,5R)-2-[2-(3-Acetyl-indazol-1-yl)-acetyl]-2-aza-bicyclo[3.1.0]hexane-3-carboxylic acid ((1S,3S)-3-methoxy-cyclohexyl)-amide]	1070
CO[C@@H]1CCC[C@@H](NC(=O)[C@@H]2C[C@H]3C[C@H]3N2C(=O)Cn2nc(C(C)=O)c3ccccc32)C1 [Example 43, (1R,3S,5R)-2-[2-(3-Acetyl-indazol-1-yl)-acetyl]-2-aza-bicyclo[3.1.0]hexane-3-carboxylic acid ((1R,3R)-3-methoxy-cyclohexyl)-amide]	323
CO[C@@H]1CCC[C@H](NC(=O)[C@@H]2C[C@H]3C[C@H]3N2C(=O)Cn2nc(C(C)=O)c3ccccc32)C1 [Example 44, (1R,3S,5R)-2-[2-(3-Acetyl-indazol-1-yl)-acetyl]-2-aza-bicyclo[3.1.0]hexane-3-carboxylic acid ((1S,3R)-3-methoxy-cyclohexyl)-amide]	1880
CO[C@H]1CCC[C@@H](NC(=O)[C@@H]2C[C@H]3C[C@H]3N2C(=O)Cn2nc(C(C)=O)c3ccccc32)C1 [Example 45, (1R,3S,5R)-2-[2-(3-Acetyl-indazol-1-yl)-acetyl]-2-aza-bicyclo[3.1.0]hexane-3-carboxylic acid ((1R,3S)-3-methoxy-cyclohexyl)-amide]	405
C[C@H]1CCC[C@@H](NC(=O)[C@@H]2C[C@H]3C[C@H]3N2C(=O)Cn2nc(C(N)=O)c3ccccc32)C1 [Example 47, 1-{2-[(1R,3S,5R)-3-((1R,3S)-3-Methyl-cyclohexylcarbamoyl)-2-aza-bicyclo[3.1.0]hex-2-yl]-2-oxo-ethyl}-1H-indazole-3-carboxylic acid amide]	91
C[C@@H]1CCC[C@H](NC(=O)[C@@H]2C[C@H]3C[C@H]3N2C(=O)Cn2nc(C(N)=O)c3ccccc32)C1 [Example 48, 1-{2-[(1R,3S,5R)-3-((1S,3R)-3-Methyl-cyclohexylcarbamoyl)-2-aza-bicyclo[3.1.0]hex-2-yl]-2-oxo-ethyl}-1H-indazole-3-carboxylic acid amide]	1320
